Data taken from patent publication US9925166B2, “Methods of treating an overweight or obese subject” (Zafgen, Inc., priority 2008, dated 2018).

Legend:
[1] = tested on: blood cells; assay: Complete blood analysis (CBC) after oral fumagillin in lean rats (Example 9); assay type: in vivo, Sprague-Dawley rats; conditions: for lymphocyte count / neutrophil count / white blood cell count: 3 mg/kg oral gavage on day 3 and day 9
Method: Male lean Sprague-Dawley rats were divided into two groups, ten rats per group. One group of rats received fumagillin by oral gavage as a solution in 10% DMSO, at dose of 3 mg/kg. Administration of fumagillin to this group of rats was performed on day 3 and day 9 of the study. The other group of rats was administered by oral gavage a solution of 10% DMSO/90% water (vehicle-only). Administration of vehicle to this group of rats was performed on day 3 and day 9 of the study. Blood samples were collected daily for complete blood analysis (CBC).

[2] = tested on: diet-induced obese mice; assay: Weight loss study in diet-induced obese mice, oral gavage 28 days (Example 2); assay type: in vivo, C57BL/6NTac mice; conditions: for weight loss as a percentage of pre-study weight: 28 days, end of study
Method: The mice in this study were not genetically obese, but prior to and during the study, obesity was induced by a high-fat diet. Twelve week-old C57BL/6NTac mice, maintained on a 60% fat diet prior to and during the study, were separated into six groups, eight animals per group.
Fumagillin was administered to four of the diet-induced obese mice groups by oral gavage as a solution in 10% DMSO, at doses of 1 mg/kg/day, 3 mg/kg/day, 10 mg/kg/day and 30 mg/kg/day respectively, for 28 days. A fifth group received 10% DMSO vehicle-only (control) by oral gavage, and the sixth group received neither vehicle nor fumagillin (naïve). Body weight was measured on day 0 (pre-study) and subsequently on day 3, day 8, day 15, day 22, and day 29 of the study. Daily food consumption was also recorded.

[3] = tested on: diet-induced obese mice; assay: Very low dose oral and subcutaneous weight loss study in diet-induced obese mice (Examples 3 and 4); assay type: in vivo, C57BL/6NTac mice
From the text: (§1) Mice were divided into two groups, a diet-induced obese group and a lean group. For the diet-induced obese group, fifteen week-old C57BL/6NTac mice, maintained prior to and during the study on a diet containing 60% fat on a kilocalorie basis, were further separated into six groups, eight animals per group. Average body weight of these diet-induced obese mice was 38 g at the start of the study. For the lean group, fifteen week-old C57BLI6NTac mice, maintained on a diet containing 4.3% by weight fat prior to and during the study, were further separated into two groups, eight animals per group. Average body weight of these lean mice was 28 g at the start of the study.
Fumagillin was administered to three of the diet-induced obese mice groups by oral gavage as a solution in 10% DMSO, at doses of 0.1 mg/kg/day, 0.3 mg/kg/day, and 1 mg/kg/day respectively. A fourth diet-induced obese mice group received the 10% DMSO vehicle only by oral gavage. A group of lean mice was administered fumagillin by oral gavage as a solution in 10% DMSO at a dose of 1 mg/kg/day. Treatments were administered daily for 11 days.
as §1, with “A study was undertaken to analyze whether oral administration compared to subcutaneous administration of fumagillin affected weight loss in diet-induced obese mice. Mice” for “Mice”
Fumagillin was administered to three of the diet-induced obese groups by oral gavage as a solution in 10% DMSO, at doses of 0.1 mg/kg/day, 0.3 mg/kg/day, and 1 mg/kg/day respectively. A fourth diet-induced obese group received the 10% DMSO vehicle-only by oral gavage. A fifth diet-induced obese group received fumagillin at a 1 mg/kg/day dose by subcutaneous injection of a solution in 10% DMSO. A sixth diet-induced obese group received the 10% DMSO vehicle only by subcutaneous injection. A group of lean mice was administered fumagillin by oral gavage as a solution in 10% DMSO at a dose of 1 mg/kg/day.
Another group of lean mice was administered fumagillin by subcutaneous injection of a solution in 10% DMSO at a dose of 1 mg/kg/day. Treatments were administered daily for 14 days.

[4] = tested on: diet-induced obese mice; assay: 47-day weight and food intake study in diet-induced obese mice (Example 5); assay type: in vivo, C57BL/6NTac mice; conditions: 1 mg/kg/day oral gavage
Method: Mice were divided into two groups, a diet-induced obese group and a lean group (control). For the diet-induced obese group, C57BL/6NTac mice maintained prior to and during the study on a diet containing 60% fat on a kilocalorie basis were further divided into two groups, fifteen mice per group. Average body weight of these diet-induced obese mice was 40 g at the start of the study. […] Daily food consumption was also recorded.
Fumagillin was administered to one of the diet-induced obese mice groups by oral gavage as a solution in 10% DMSO, at dose of 1 mg/kg/day, for 47 days. The other diet-induced obese mice group and the lean mice group were not administered anything.

[5] = tested on: leptin; assay: Plasma marker leptin in diet-induced obese mice (Example 10); assay type: in vivo, C57BL/6 mice; conditions: 1 mg/kg/day oral gavage, end of study vs prior, FIG. 15
Method: Mice were divided into four groups, a diet-induced obese group administered fumagillin at 1 mg/kg/day (oral gavage as a solution in 0.25% DMSO), a Pair-fed group, a caloric restriction group, and a diet-induced obese group. For the diet-induced obese groups, C57BL/6 mice were maintained prior to and during the study on a diet containing 42% fat on a kilocalorie basis. Plasma markers were measured prior to and at the end of the study.

[6] = humans, 30 mg/day to 60 mg/day; Molina et al., Seneca; cited from earlier work
[7] = oral gavage, weight loss, not identified, concluded

With `CO[C@@H]1[C@H](OC(=O)/C=C/C=C/C=C/C=C/C(=O)O)CC[C@]2(CO2)[C@H]1[C@@]1(C)O[C@@H]1CC=C(C)C` [fumagillin] the lymphocyte count ([1]; day 3) was “approximately 4000 lymphocytes/4”, the neutrophil count ([1]; day 3) was “approximately 650 neutrophils/4” and the “white blood cell count” value ([1]; day 3) was “approximately 5000 white blood cells/4”. The lymphocyte count ([1]; day 9) was “approximately 3900 lymphocytes/4”, the neutrophil count ([1]; day 9) was “approximately 1100 neutrophils/4” and the “white blood cell count” value ([1]; day 9) was “approximately 5200 white blood cells/4”. The “development of a blood disorder” value ([1]; 3 mg/kg oral gavage, rats) was “do not result in development of a blood disorder”, the “variation vs vehicle-only rats in white blood cell, lymphocyte and neutrophil count” value ([1]; 3 mg/kg oral gavage, statistical analysis) was “not statistically significant” and the “neutrophil counts compared to vehicle-only mice” value ([2]; 1 mg/kg and 3 mg/kg oral) was “decreased”. The “weight loss as a percentage of pre-study weight” value (“weight loss as a percentage” for short) ([2]; 1 mg/kg/day oral gavage) was 15%, the “weight loss as a percentage” value ([2]; 3 mg/kg/day oral gavage) was 18% and the “neutrophil counts compared to vehicle-only mice” value ([2]; 10 mg/kg and 30 mg/kg oral) was “increased”. For the same compound, the “weight loss as a percentage” value ([2]; 10 mg/kg/day oral gavage) was 21%, the “weight loss as a percentage” value ([2]; 30 mg/kg/day oral gavage) was 33% and the “food consumption among dose groups” value ([2]; 30 mg/kg/day oral, 30 day period) was “consuming the least amount of food”. For the same compound, the “food consumption vs vehicle-only and naive mice” value ([2]; 1-30 mg/kg/day oral, 30 day period) was “consumed less food”, the “leukocytes, particularly lymphocytes (hematology)” value ([2]; fumagillin dose groups, oral) was “decrease” and the platelets ([2]; fumagillin dose groups, oral) was “No decrease”. For the same compound, the cholesterol levels ([2]; fumagillin treatment, oral) was “reductions”, the serum glucose levels ([2]; fumagillin treatment, oral) was “reductions” and the non-effective dose [2, 7] was “below 1 mg/kg/day”. For the same compound, the “weight loss as a percentage” value ([3]; 0.1 mg/kg/day oral gavage, end of study (14 days)) was 7%, the “weight loss as a percentage” value ([3]; 0.3 mg/kg/day oral gavage, end of study (14 days)) was 11% and the “weight loss as a percentage” value ([3]; 1 mg/kg/day oral gavage, end of study (14 days)) was 12%. For the same compound, the “weight loss as a percentage” value ([3]; 1 mg/kg/day subcutaneous injection, 14 days, end of study) was 7%, the non-effective dose [3, 7] was “below 0.1 mg/kg/day” and the “effect on lean body mass” value ([4]; 47 days, weight plateaued at weight of lean mice) was “without substantial reduction of lean body mass”. The average weight ([4]; day seventeen (from 40 g on day 1)) was 32 g, the average weight ([4]; maintained through day 47) was “approximately 32 g” and the “amount of food consumed” value ([4]; throughout 47 days) was 2.2 g/day. For the same compound, the leptin levels [5] was “reduced” and the “blood disorders developed by patients” value [6] was “thrombocytopenia, leukopenia, and neutropenia”.
